ChEMBL document CHEMBL3886748, “Indazole derivatives useful as ERK inhibitors” (2016)

Target: Mitogen-activated protein kinase 1 (Mus musculus, UniProt P63085)
Assay: Active ERK2 (aERK) Assay: Activated ERK2 activity was also determined in the IMAP assay format using the procedure outlined above. 1 μl of 25× compound was added to 14 μl of kinase buffer containing 0.25 ng fully phosphorylated, active Mouse ERK2 protein. Following a 30 minute incubation, the reactions were initiated by addition of 10 μl of kinase buffer containing 1 μM ERK2 IMAP substrate peptide (0.9 μM unlabeled IPTTPITTTYFFFK-CONH2 and 100 nM IPTTPITTTYFFFK(5-carboxyfluorescein)-CONH2) and 30 μM ATP. Reactions proceeded for 30 minutes before termination by addition of 60 μl IMAP detection beads in binding buffer. Plates were read as above after 30 minute binding equilibration. Active compounds were reconfirmed in an independent assay.

Sequence of Mitogen-activated protein kinase 1 (P63085 whole entry): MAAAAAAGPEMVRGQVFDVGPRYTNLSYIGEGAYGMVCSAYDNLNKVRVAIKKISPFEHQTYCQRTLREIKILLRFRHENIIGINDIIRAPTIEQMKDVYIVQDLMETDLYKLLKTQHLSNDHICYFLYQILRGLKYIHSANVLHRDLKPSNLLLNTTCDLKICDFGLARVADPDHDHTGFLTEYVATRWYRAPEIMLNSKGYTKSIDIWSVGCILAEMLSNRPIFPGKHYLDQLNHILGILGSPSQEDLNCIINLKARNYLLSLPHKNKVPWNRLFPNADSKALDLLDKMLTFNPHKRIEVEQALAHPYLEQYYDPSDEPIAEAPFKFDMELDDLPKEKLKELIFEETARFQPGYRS

Row | Compound | IC50 [µM]
1 | Cc1cc(-c2n[nH]c3ccc(C(=O)N[C@H]4CCC[C@@](O)(Cn5cc6cc(F)ccc6n5)C4)cc23)ccn1 (relative stereo) | 0.772
2 | Cc1cc(-c2n[nH]c3ccc(C(=O)N[C@@H]4CCC[C@](O)(Cn5cc6cccnc6n5)C4)cc23)ccn1 (relative stereo) | 0.404
